pIC50, pKd: −log10 of the molar value.

The pKd is the negative decadic logarithm of the Kd, by convention in mol/L. In general, pIC50 refers to −log10 of the IC50, conventionally taken in molar units.

One experiment addresses NRAS G12D C118S (Homo sapiens (Human), UniProt P01111, C118S/G12D). In words: NRas G12D Surface Plasmon Resonance (SPR) binding assay. The settings on record: Avi-tagged biotinylated NRAS G12D C118S on streptavidin chip, 25° C., 1:1 kinetic or steady-state fit. The essentials:
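Biotinylated Avi-tagged NRAS G12D C118S was captured at about 600 RU on a streptavidin chip alongside a blank reference channel. Compounds were run as 10-point 1:3 dilution series in HBS-P+ pH 7.4 with 5 mM MgCl2 and 3% DMSO, using a 2–4% DMSO solvent correction. A control compound at 10 μM was injected periodically to check protein activity.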

Experiment [1] relates to THP-1 cells expressing G12D (NRAS G12D). In words: Inhibition of NRAS G12D-mediated phosphorylation of ERK (AlphaLISA p-ERK1/2) in THP-1 cells. The class given is cell-based. The settings on record: Homo sapiens, THP-1, 2 h, 2 hours incubation, HBSS with 0% or 10% FBS, p-ERK1/2 (Thr202/Tyr204) AlphaLISA, read-out: pERK THP-1 IC50. The essentials:
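THP-1 cells expressing NRAS G12D, seeded in HBSS with 0% or 10% FBS, were exposed to test compound (1% DMSO final) for 2 h. p-ERK1/2 (Thr202/Tyr204) read by AlphaLISA SureFire Ultra. IC50 from curves normalized to no-inhibitor (100%) and 1 μM trametinib (0%) controls.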
On the technique in general: Alpha assays give light when donor and acceptor beads are brought close together.

Sequence of NRAS G12D C118S (P01111 whole entry G12D/C118S): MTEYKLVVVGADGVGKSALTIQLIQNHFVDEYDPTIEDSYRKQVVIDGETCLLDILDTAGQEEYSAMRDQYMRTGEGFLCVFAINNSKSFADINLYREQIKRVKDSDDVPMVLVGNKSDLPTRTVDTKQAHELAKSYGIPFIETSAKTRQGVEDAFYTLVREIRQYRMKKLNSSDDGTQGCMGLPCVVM

The compound `C#Cc1c(F)ccc2cc(O)cc(-c3ncc4c(C5=CC6CCC5CN6)nn(C)c4c3F)c12` (centres unmarked) [Example 42, 4-[3-(2-azabicyclo[2.2.2]oct-5-en-5-yl)-7-fluoro-1-methyl-pyrazolo[4,3-c]pyridin-6-yl]-5-ethynyl-6-fluoro-naphthalen-2-ol] gave a pKd on NRAS G12D C118S of 5.53. The negative-log IC50 (pIC50) in experiment [1] was less than 5.00.
The corresponding values for `C#Cc1c(F)ccc2cc(O)cc(-c3nc(OCC(C)C)c4c([C@H]5[C@@H]6CNC[C@@H]65)nn(C5CC5)c4c3F)c12` [Example 100, 4-(3-((1R,5S,6r)-3-azabicyclo[3.1.0]hexan-6-yl)-1-cyclopropyl-7-fluoro-4-isobutoxy-1H-pyrazolo[4,3-c]pyridin-6-yl)-5-ethynyl-6-fluoronaphthalen-2-ol] are 6.15 and 5.76.
`C#Cc1c(F)ccc2cc(O)cc(-c3ncc4c(c3F)n(C)c(=O)n4C3[C@H]4CNC[C@@H]34)c12` (stereo partly drawn) [Example 45, 3-[(1R,5S)-3-azabicyclo[3.1.0]hexan-6-yl]-6-(8-ethynyl-7-fluoro-3-hydroxy-1-naphthyl)-7-fluoro-1-methyl-imidazo[4,5-c]pyridin-2-one]: the pKd on NRAS G12D C118S was 5.00. For the same compound, the negative logarithm of the IC50 (pIC50) in experiment [1] is less than 5.00.
Take `C#Cc1c(F)ccc2cc(O)cc(-c3nc(OC(C)C)c4c([C@H]5[C@@H]6CNC[C@@H]65)nn(C5CC5)c4c3F)c12` [Example 62, 4-(3-((1R,5S,6r)-3-azabicyclo[3.1.0]hexan-6-yl)-1-cyclopropyl-7-fluoro-4-isopropoxy-1H-pyrazolo[4,3-c]pyridin-6-yl)-5-ethynyl-6-fluoronaphthalen-2-ol]: the pKd on NRAS G12D C118S was 7.73. Also, the negative-log IC50 (pIC50) in experiment [1] was 6.94.
Take `C#Cc1c(F)ccc2cc(O)cc(-c3ncc4c(c(C)cn4C4CC5CCC4CN5)c3F)c12` (centres unmarked) [Example 39, 4-[1-(2-azabicyclo[2.2.2]octan-5-yl)-4-fluoro-3-methyl-pyrrolo[2,3-c]pyridin-5-yl]-5-ethynyl-6-fluoro-naphthalen-2-ol]: at NRAS G12D C118S, the pKd is 6.36. The negative-log IC50 (pIC50) in experiment [1] was 5.32.
The corresponding values for `C#Cc1c(F)ccc2cc(O)cc(-c3ncc4c(N5CC6CC(C5)N6)nn(C)c4c3F)c12` [Example 34, 4-[3-(3,6-diazabicyclo[3.1.1]heptan-3-yl)-7-fluoro-1-methyl-pyrazolo[4,3-c]pyridin-6-yl]-5-ethynyl-6-fluoro-naphthalen-2-ol] are 6.21 and 5.22.
`C#Cc1c(F)ccc2cc(O)cc(-c3ncc4c(N5CC6CCC5CN6)nn(C)c4c3F)c12` (centres unmarked) [Example 26, 4-(3-(2,5-diazabicyclo[2.2.2]octan-2-yl)-7-fluoro-1-methyl-1H-pyrazolo[4,3-c]pyridin-6-yl)-5-ethynyl-6-fluoronaphthalen-2-ol] had a negative logarithm of the Kd (pKd) at NRAS G12D C118S of 7.13. The negative-log IC50 (pIC50) in experiment [1] was 5.69.
The corresponding values for `C#Cc1c(F)ccc2cc(O)cc(-c3ncc4c(N5CC6CCC(C5)N6)nn(C)c4c3F)c12` [Example 13, 4-(3-(3,8-diazabicyclo[3.2.1]octan-3-yl)-7-fluoro-1-methyl-1H-pyrazolo[4,3-c]pyridin-6-yl)-5-ethynyl-6-fluoronaphthalen-2-ol] are 6.05 and 5.17.
The corresponding values for `C#Cc1c(F)ccc2cc(O)cc(-c3c(F)cc4c([C@H]5[C@@H]6CNC[C@@H]65)cn(C)c4c3F)c12` [Example 29, 4-(3-((1R,5S,6s)-3-azabicyclo[3.1.0]hexan-6-yl)-5,7-difluoro-1-methyl-1H-indol-6-yl)-5-ethynyl-6-fluoronaphthalen-2-ol] are 6.02 and 5.51.
The corresponding values for `C#Cc1c(F)ccc2cc(O)cc(-c3ncc4c([C@H]5[C@@H]6CNC[C@@H]65)cn(C5CC5)c4c3F)c12` [Example 5, 4-(3-((1R,5S,6s)-3-azabicyclo[3.1.0]hexan-6-yl)-1-cyclopropyl-7-fluoro-1H-pyrrolo[3,2-c]pyridin-6-yl)-5-ethynyl-6-fluoronaphthalen-2-ol] are 8.00 and 6.57.
`C#Cc1c(F)ccc2cc(O)cc(-c3nc(OC4CCCC4)c4c([C@H]5[C@@H]6CNC[C@@H]65)nn(C5CC5)c4c3F)c12` [Example 65, 4-(3-((1R,5S,6r)-3-azabicyclo[3.1.0]hexan-6-yl)-4-(cyclopentyloxy)-1-cyclopropyl-7-fluoro-1H-pyrazolo[4,3-c]pyridin-6-yl)-5-ethynyl-6-fluoronaphthalen-2-ol]: at NRAS G12D C118S, the pKd was 6.90. In experiment [1], the negative-log IC50 (pIC50) was 5.98.
The corresponding values for `C#Cc1c(F)ccc2cc(O)cc(-c3nc(OC)c4c(N5C[C@@H]6CC[C@H]5CN6)nn(C5CC5)c4c3F)c12` [Example 91, 4-(3-((1S,4S)-2,5-diazabicyclo[2.2.2]octan-2-yl)-1-cyclopropyl-7-fluoro-4-methoxy-1H-pyrazolo[4,3-c]pyridin-6-yl)-5-ethynyl-6-fluoronaphthalen-2-ol] are 6.84 and 5.78.
The corresponding values for `C#Cc1c(F)ccc2cc(O)cc(-c3ncc4c(N5C[C@@H]6CC[C@H]5CN6)nn(C)c4c3F)c12` [Example 30, 4-(3-((1S,4S)-2,5-diazabicyclo[2.2.2]octan-2-yl)-7-fluoro-1-methyl-1H-pyrazolo[4,3-c]pyridin-6-yl)-5-ethynyl-6-fluoronaphthalen-2-ol] are 7.28 and 5.93.
The corresponding values for `C#Cc1c(F)ccc2cc(O)cc(-c3nc(CC(C)C)c4c([C@H]5[C@@H]6CNC[C@@H]65)nn(C5CC5)c4c3F)c12` [Example 73, 4-(3-((1R,5S,6r)-3-azabicyclo[3.1.0]hexan-6-yl)-1-cyclopropyl-7-fluoro-4-isobutyl-1H-pyrazolo[4,3-c]pyridin-6-yl)-5-ethynyl-6-fluoronaphthalen-2-ol] are 6.67 and 5.89.
In turn, `C#Cc1c(F)ccc2cc(O)cc(-c3ncc4c(N5C[C@H]6CC[C@@H]5CN6)nn(C)c4c3F)c12` [Example 60, 4-(3-((1R,4R)-2,5-diazabicyclo[2.2.2]octan-2-yl)-7-fluoro-1-methyl-1H-pyrazolo[4,3-c]pyridin-6-yl)-5-ethynyl-6-fluoronaphthalen-2-ol] gave a pKd at NRAS G12D C118S of 5.59. Moreover, the pIC50 in experiment [1] was 4.64.
Turning to `C#Cc1c(F)ccc2cc(O)cc(-c3ncc4c(N5CC6CCC(C5)N6)cn(C5CC5)c4c3F)c12` [Example 85, 4-(3-(3,8-diazabicyclo[3.2.1]octan-3-yl)-1-cyclopropyl-7-fluoro-1H-pyrrolo[3,2-c]pyridin-6-yl)-5-ethynyl-6-fluoronaphthalen-2-ol], the pKd at NRAS G12D C118S is 6.47. Besides, in experiment [1], the negative-log IC50 (pIC50) is 5.77.
On NRAS G12D C118S, `C#Cc1c(F)ccc2cc(O)cc(-c3nc(OCC(F)(F)F)c4c([C@H]5[C@@H]6CNC[C@@H]65)nn(C5CC5)c4c3F)c12` [Example 67, 4-(3-((1R,5S,6r)-3-azabicyclo[3.1.0]hexan-6-yl)-1-cyclopropyl-7-fluoro-4-(2,2,2-trifluoroethoxy)-1H-pyrazolo[4,3-c]pyridin-6-yl)-5-ethynyl-6-fluoronaphthalen-2-ol] showed a pKd of 6.94. Besides, the negative logarithm of the IC50 (pIC50) in experiment [1] was 6.12.
As to `C#Cc1c(F)ccc2cc(O)cc(-c3nc(OC4CC(F)(F)C4)c4c([C@H]5[C@@H]6CNC[C@@H]65)nn(C5CC5)c4c3F)c12` [Example 68, 4-(3-((1R,5S,6r)-3-azabicyclo[3.1.0]hexan-6-yl)-1-cyclopropyl-4-(3,3-difluorocyclobutoxy)-7-fluoro-1H-pyrazolo[4,3-c]pyridin-6-yl)-5-ethynyl-6-fluoronaphthalen-2-ol], on NRAS G12D C118S, the pKd was 6.25. The pIC50 in experiment [1] is 5.67.
The corresponding values for `C#Cc1c(F)ccc2cc(O)cc(-c3nc(N(C)C(C)C)c4c([C@H]5[C@@H]6CNC[C@@H]65)nn(C5CC5)c4c3F)c12` [Example 75, 4-(3-((1R,5S,6r)-3-azabicyclo[3.1.0]hexan-6-yl)-1-cyclopropyl-7-fluoro-4-(isopropyl(methyl)amino)-1H-pyrazolo[4,3-c]pyridin-6-yl)-5-ethynyl-6-fluoronaphthalen-2-ol] are 7.60 and 6.61.
The corresponding values for `C#Cc1c(F)ccc2cc(O)cc(-c3ncc4c(N5C[C@@H]6CC[C@H]5CN6)cn(C5CC5)c4c3F)c12` [Example 86, 4-(3-((1S,4S)-2,5-diazabicyclo[2.2.2]octan-2-yl)-1-cyclopropyl-7-fluoro-1H-pyrrolo[3,2-c]pyridin-6-yl)-5-ethynyl-6-fluoronaphthalen-2-ol] are 6.82 and 6.12.
The corresponding values for `C#Cc1c(F)ccc2cc(O)cc(-c3ncc4c(N5C[C@@H]6CC[C@H]5CN6)nn(C5CC5)c4c3F)c12` [Example 106, 4-(3-((1S,4S)-2,5-diazabicyclo[2.2.2]octan-2-yl)-1-cyclopropyl-7-fluoro-1H-pyrazolo[4,3-c]pyridin-6-yl)-5-ethynyl-6-fluoronaphthalen-2-ol] are 8.03 and 6.79.
As to `C#Cc1c(F)ccc2cc(O)cc(-c3ncc4c([C@H]5[C@@H]6CNC[C@@H]65)nn([C@@H]5C[C@@H]5C)c4c3F)c12` [Example 104, 4-(3-((1R,5S,6r)-3-azabicyclo[3.1.0]hexan-6-yl)-7-fluoro-1-((1R,2S)-2-methylcyclopropyl)-1H-pyrazolo[4,3-c]pyridin-6-yl)-5-ethynyl-6-fluoronaphthalen-2-ol], the pKd at NRAS G12D C118S is 5.93. In experiment [1], the negative-log IC50 (pIC50) was 4.90.

(Values after US20260022118A1, “HETEROCYCLIC COMPOUNDS AS NRAS INHIBITORS” (Board of Regents, The University of Texas System, priority 2023, published 2026).)
